How the values were obtained:
Hu‐CIP2A (1‐560) = biological target: T1, Hu‐CIP2A (1‐560) (Homo sapiens, UniProt Q8TCG1); assay: isothermal titration calorimetry, one-site model; assay type: binding; details: read-out: dissociation constant
T1 construct: recombinant purified N-terminal armadillo repeat domain, residues 1-560 of 905
Excerpt: isothermal titration calorimetry, one-site model on Hu‐CIP2A (1‐560) | A strong binding affinity between PF and CIP2A protein was observed, with a dissociation constant

CIP2A = biological target: T2, CIP2A (Homo sapiens, UniProt Q8TCG1); assay: DARTS (proteinase K, immunoblot) and cellular thermal shift assay; assay type: cell-based; details: A375 cells treated with PF (DARTS); melanoma cells (CETSA)
T2 construct: endogenous full-length protein in A375 human melanoma cells / lysate; 905 residues

- Kd (Hu‐CIP2A (1‐560)): 7.42 µM
SMILES: OC1(c2ccc(Cl)c(C(F)(F)F)c2)CCN(CCCC(c2ccc(F)cc2)c2ccc(F)cc2)CC1 [PF, Penfluridol]
- DARTS (proteinase K, immunoblot) and cellular thermal shift assay (CIP2A): PF protects CIP2A from proteinase K‐induced protein hydrolysis

From article PMC11470999, “Penfluridol inhibits melanoma growth and metastasis through enhancing von Hippel‒Lindau tumor suppressor‐mediated cancerous inhibitor of protein phosphatase 2A (CIP2A) degradation” (MedComm, 2024)
